Measurements: the supplement of paper PMC10307832

How the values were obtained:
Assay in all cases: relative viability (nuclei count vs DMSO), 5 days (fraction); higher = more cells survive
[1] = compound: Cc1ccc(C(=O)Nc2cccc(C(F)(F)F)c2)cc1Nc1cncc(C(N)=O)c1 [ALW-II-49-7] + CC(=O)c1c(C)c2cnc(Nc3ccc(N4CCNCC4)cn3)nc2n(C2CCCC2)c1=O [Palbociclib] (partner 0.5 µM)
Outline: (§1)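 Five library-drug doses in √10 steps were combined with a fixed anchor-drug dose, or a single drug was given alone, by pin tool to lung cancer cell lines in 1536-well plates the day after seeding. Nuclei were stained and counted after 5 days. Relative viability is the nuclei count in treated wells over that in vehicle wells, taken as the median of duplicate plates.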

ALW-II-49-7 + Pictilisib = compound: Cc1ccc(C(=O)Nc2cccc(C(F)(F)F)c2)cc1Nc1cncc(C(N)=O)c1 [ALW-II-49-7] + CS(=O)(=O)N1CCN(Cc2cc3nc(-c4cccc5[nH]ncc45)nc(N4CCOCC4)c3s2)CC1 [Pictilisib] (partner 1 µM)
Outline: as §1

XMD13-2 + Dasatinib = compound: C1CC1C(=O)NC2=NNC3=C2C=CC(=C3)C4=CC(=CC=C4)C(=O)NC5CC5 [XMD13-2] + Cc1nc(Nc2ncc(C(=O)Nc3c(C)cccc3Cl)s2)cc(N2CCN(CCO)CC2)n1 [Dasatinib] (partner 0.075 µM)
Outline: as §1

Cell Line	relative viability ([1]; first compound 0.08 µM)	relative viability ([1]; first compound 0.253 µM)	relative viability ([1]; first compound 0.8 µM)	relative viability ([1]; first compound 2.53 µM)	relative viability ([1]; first compound 8 µM)	relative viability (ALW-II-49-7 + Pictilisib; first compound 0.08 µM)	relative viability (ALW-II-49-7 + Pictilisib; first compound 0.253 µM)	relative viability (ALW-II-49-7 + Pictilisib; first compound 0.8 µM)	relative viability (ALW-II-49-7 + Pictilisib; first compound 2.53 µM)	relative viability (ALW-II-49-7 + Pictilisib; first compound 8 µM)	relative viability (XMD13-2 + Dasatinib; first compound 0.05 µM)	relative viability (XMD13-2 + Dasatinib; first compound 0.1581 µM)	relative viability (XMD13-2 + Dasatinib; first compound 0.5 µM)	relative viability (XMD13-2 + Dasatinib; first compound 1.581 µM)	relative viability (XMD13-2 + Dasatinib; first compound 5 µM)
NCI-H727	0.604	0.63	0.676	0.555	0.577	0.511	0.415	0.267	0.432	0.292	0.383	0.344	0.38	0.478	0.426
NCI-H358	0.128	0.13	0.141	0.133	0.117	0.361	0.401	0.363	0.405	0.456	0.201	0.162	0.142	0.174	0.171
NCI-H1437	0.288	0.318	0.286	0.34	0.315	0.435	0.414	–	0.432	0.399	0.409	0.442	0.397	0.352	0.556
NCI-H441	0.182	0.177	0.249	0.212	0.188	0.439	0.382	0.49	0.458	0.378	0.567	0.668	0.54	0.625	0.516
EMC-BAC-2	0.499	0.519	0.488	0.437	0.391	0.507	0.59	0.567	0.556	0.46	0.32	0.323	0.202	0.302	0.25
NCI-H647	0.422	0.307	0.444	0.294	0.238	0.489	0.507	–	0.469	0.499	0.17	0.172	0.207	0.13	0.115
CAL-12T	0.381	0.423	0.46	0.411	0.365	0.343	–	–	0.715	0.395	0.497	0.402	0.405	0.396	0.409
NCI-H1792	0.564	0.454	0.471	0.522	0.548	0.232	0.21	0.215	0.183	0.258	0.966	1.03	0.798	0.971	0.829
H3255	0.309	0.314	0.322	0.28	0.295	0.505	0.43	0.48	0.335	0.418	0.425	0.402	0.367	0.294	0.373
HCC-78	0.434	0.47	0.488	0.509	0.416	0.192	0.188	0.203	0.268	0.192	0.565	0.321	0.36	0.347	0.351
EBC-1	–	–	–	–	–	0.315	0.316	–	0.242	0.244	–	–	–	–	–
NCI-H2405	0.507	0.591	0.488	0.532	0.468	0.409	0.526	0.368	0.345	0.366	0.211	0.259	0.239	0.171	0.226
A549	–	–	–	–	–	0.535	0.568	0.496	0.505	0.416	–	–	–	–	–
NCI-H3122	0.223	0.212	0.191	0.397	0.227	0.695	0.458	0.614	0.708	0.971	1.01	0.863	0.843	0.723	0.77
NCI-H1563	–	–	–	–	–	0.573	0.661	0.643	0.595	0.657	0.485	0.435	0.43	0.436	0.506
HCC-44	0.961	1.02	0.972	0.871	0.864	0.513	0.693	0.638	0.535	0.646	–	–	–	–	–
PC-3 [JPC-3]	0.536	0.595	0.546	0.561	0.558	0.657	0.799	0.745	0.711	0.616	1.22	0.991	1	0.959	1.11
NCI-H1993	0.717	0.717	0.571	0.705	0.684	0.79	1.01	0.746	0.807	0.619	0.601	0.44	0.526	0.519	0.573
LOU-NH91	0.484	0.526	0.517	–	0.564	0.482	0.599	0.514	0.428	0.533	0.591	0.586	0.566	0.479	0.525
SW 900	0.475	0.577	–	0.573	0.658	–	–	–	–	–	0.616	0.537	0.601	0.578	0.652
LCLC-103H	0.486	0.533	0.494	0.495	0.55	0.544	0.859	0.692	0.67	0.546	0.688	0.46	0.445	0.515	0.527
NCI-H1915	0.618	0.595	0.543	0.453	0.414	0.945	1.18	0.966	0.818	0.645	0.362	0.342	0.322	0.302	0.305
IA-LM	–	–	–	–	–	0.334	0.281	0.388	0.209	0.288	–	–	–	–	–
NCI-H1734	0.293	0.376	0.355	0.319	0.296	0.491	0.42	0.491	0.48	0.499	0.493	0.419	0.484	0.373	0.428
SK-MES-1	0.344	0.314	0.284	0.315	0.22	0.331	0.48	0.367	0.365	0.397	0.347	0.349	0.296	0.325	0.374
Calu-6	–	–	–	–	–	1.02	0.99	0.907	0.735	0.72	–	–	–	–	–

Cell Line	relative viability ([1]; first compound 0.08 µM)	relative viability ([1]; first compound 0.253 µM)	relative viability ([1]; first compound 0.8 µM)	relative viability ([1]; first compound 2.53 µM)	relative viability ([1]; first compound 8 µM)	relative viability (ALW-II-49-7 + Pictilisib; first compound 0.08 µM)	relative viability (ALW-II-49-7 + Pictilisib; first compound 0.253 µM)	relative viability (ALW-II-49-7 + Pictilisib; first compound 0.8 µM)	relative viability (ALW-II-49-7 + Pictilisib; first compound 2.53 µM)	relative viability (ALW-II-49-7 + Pictilisib; first compound 8 µM)	relative viability (XMD13-2 + Dasatinib; first compound 0.05 µM)	relative viability (XMD13-2 + Dasatinib; first compound 0.1581 µM)	relative viability (XMD13-2 + Dasatinib; first compound 0.5 µM)	relative viability (XMD13-2 + Dasatinib; first compound 1.581 µM)	relative viability (XMD13-2 + Dasatinib; first compound 5 µM)
HCC-15	0.729	0.722	0.704	0.712	0.68	0.849	0.791	0.705	0.805	0.741	0.775	0.66	0.715	0.614	0.423
SK-LU-1	0.332	0.35	0.337	0.26	0.323	0.522	0.715	0.44	–	0.514	0.195	0.185	0.199	0.164	0.199
NCI-H2023	0.325	0.344	0.36	0.4	0.428	0.244	0.206	0.251	0.221	0.217	0.806	0.545	0.688	0.559	0.64
HCC-366	0.354	0.454	0.388	0.299	0.326	0.13	0.142	0.148	0.0944	0.217	0.775	0.48	0.783	0.585	0.662
NCI-H1355	0.372	0.428	0.376	0.4	0.436	0.413	0.469	0.395	0.322	0.345	0.847	0.839	0.79	0.695	0.61
NCI-H1650	0.328	0.314	0.338	0.397	0.41	0.583	0.5	0.581	0.618	0.6	0.268	0.367	0.318	0.282	0.296
SW 1573	0.347	0.489	0.373	0.347	0.319	0.475	0.486	0.465	0.47	0.465	0.593	0.458	0.514	0.454	0.397
NCI-H661	0.384	0.443	0.39	0.384	0.404	0.377	0.345	0.348	–	0.351	0.973	0.96	0.811	0.737	0.523
LU99A	–	0.403	0.39	0.377	0.359	0.323	0.325	0.297	0.325	0.293	0.572	0.646	0.649	0.503	0.456
LCLC-97TM1	0.198	0.215	0.214	0.188	0.235	0.213	0.119	0.269	0.159	0.195	0.829	0.784	0.839	0.728	0.695
LC-2-ad	0.455	0.488	0.435	0.506	0.526	0.427	1.04	0.31	0.542	0.555	0.899	0.39	0.711	0.535	0.559
NCI-H1395	0.583	0.689	0.691	–	0.495	0.646	1.05	0.653	0.581	0.62	0.459	0.428	0.402	0.394	0.441
NCI-H2228	0.602	0.416	0.645	0.812	0.596	0.477	0.464	0.428	0.34	0.254	0.753	0.586	0.59	0.384	0.532
NCI-H1944	0.353	0.32	0.327	0.346	0.351	0.314	0.371	0.328	0.364	0.324	0.226	0.236	0.229	0.235	0.213
HOP-62	0.49	0.423	0.461	0.33	0.336	0.68	0.97	0.857	0.621	0.491	0.699	0.689	0.794	0.605	0.6
NCI-H2347	0.528	0.452	0.43	0.432	0.478	0.519	0.505	0.505	0.633	0.493	0.638	0.292	0.284	0.298	0.304
NCI-H2087	0.227	0.261	0.239	0.255	0.22	1.12	1.14	0.722	0.959	0.933	0.997	0.826	0.938	0.87	0.796
EPLC-272H	0.273	0.319	0.317	0.346	0.343	0.258	0.359	0.328	0.37	0.29	0.39	0.31	0.503	0.317	0.269
NCI-H2342	0.496	0.541	0.515	0.499	0.488	–	–	–	–	–	0.334	0.357	0.334	0.313	0.349
NCI-H1299	–	–	–	–	–	0.623	0.78	0.609	0.436	0.311	–	–	–	–	–
NCI-H522	0.962	0.921	1.2	1.04	0.979	–	–	–	–	–	0.81	0.891	0.94	0.821	0.792
NCI-H1623	–	–	–	–	–	–	–	–	–	–	0.533	0.52	0.467	0.526	0.585
NCI-H596	–	–	–	–	–	0.423	0.418	0.416	0.369	0.397	0.683	0.571	0.578	0.713	0.664
NCI-H1648	0.241	0.251	0.264	0.246	0.251	–	–	–	–	–	–	–	–	–	–
NCI-H1703	–	–	–	–	–	0.239	0.241	0.212	0.203	0.205	–	–	–	–	–
